The values below come from patent US7319098B2, “1,3-dioxoisoindole derivatives having selective antagonism of T-type calcium channel” (Korea Institute of Science and Technology, priority 2006, dated 2008).

For one assay, the target named is T1, α1G T-type Ca2+ channels (Homo sapiens, UniProt O43497).
T1 construct: expressed in transfected cells; host or cells: HEK293 cells stably expressing α1G and Kir2.1
T1 sequence (O43497 whole entry): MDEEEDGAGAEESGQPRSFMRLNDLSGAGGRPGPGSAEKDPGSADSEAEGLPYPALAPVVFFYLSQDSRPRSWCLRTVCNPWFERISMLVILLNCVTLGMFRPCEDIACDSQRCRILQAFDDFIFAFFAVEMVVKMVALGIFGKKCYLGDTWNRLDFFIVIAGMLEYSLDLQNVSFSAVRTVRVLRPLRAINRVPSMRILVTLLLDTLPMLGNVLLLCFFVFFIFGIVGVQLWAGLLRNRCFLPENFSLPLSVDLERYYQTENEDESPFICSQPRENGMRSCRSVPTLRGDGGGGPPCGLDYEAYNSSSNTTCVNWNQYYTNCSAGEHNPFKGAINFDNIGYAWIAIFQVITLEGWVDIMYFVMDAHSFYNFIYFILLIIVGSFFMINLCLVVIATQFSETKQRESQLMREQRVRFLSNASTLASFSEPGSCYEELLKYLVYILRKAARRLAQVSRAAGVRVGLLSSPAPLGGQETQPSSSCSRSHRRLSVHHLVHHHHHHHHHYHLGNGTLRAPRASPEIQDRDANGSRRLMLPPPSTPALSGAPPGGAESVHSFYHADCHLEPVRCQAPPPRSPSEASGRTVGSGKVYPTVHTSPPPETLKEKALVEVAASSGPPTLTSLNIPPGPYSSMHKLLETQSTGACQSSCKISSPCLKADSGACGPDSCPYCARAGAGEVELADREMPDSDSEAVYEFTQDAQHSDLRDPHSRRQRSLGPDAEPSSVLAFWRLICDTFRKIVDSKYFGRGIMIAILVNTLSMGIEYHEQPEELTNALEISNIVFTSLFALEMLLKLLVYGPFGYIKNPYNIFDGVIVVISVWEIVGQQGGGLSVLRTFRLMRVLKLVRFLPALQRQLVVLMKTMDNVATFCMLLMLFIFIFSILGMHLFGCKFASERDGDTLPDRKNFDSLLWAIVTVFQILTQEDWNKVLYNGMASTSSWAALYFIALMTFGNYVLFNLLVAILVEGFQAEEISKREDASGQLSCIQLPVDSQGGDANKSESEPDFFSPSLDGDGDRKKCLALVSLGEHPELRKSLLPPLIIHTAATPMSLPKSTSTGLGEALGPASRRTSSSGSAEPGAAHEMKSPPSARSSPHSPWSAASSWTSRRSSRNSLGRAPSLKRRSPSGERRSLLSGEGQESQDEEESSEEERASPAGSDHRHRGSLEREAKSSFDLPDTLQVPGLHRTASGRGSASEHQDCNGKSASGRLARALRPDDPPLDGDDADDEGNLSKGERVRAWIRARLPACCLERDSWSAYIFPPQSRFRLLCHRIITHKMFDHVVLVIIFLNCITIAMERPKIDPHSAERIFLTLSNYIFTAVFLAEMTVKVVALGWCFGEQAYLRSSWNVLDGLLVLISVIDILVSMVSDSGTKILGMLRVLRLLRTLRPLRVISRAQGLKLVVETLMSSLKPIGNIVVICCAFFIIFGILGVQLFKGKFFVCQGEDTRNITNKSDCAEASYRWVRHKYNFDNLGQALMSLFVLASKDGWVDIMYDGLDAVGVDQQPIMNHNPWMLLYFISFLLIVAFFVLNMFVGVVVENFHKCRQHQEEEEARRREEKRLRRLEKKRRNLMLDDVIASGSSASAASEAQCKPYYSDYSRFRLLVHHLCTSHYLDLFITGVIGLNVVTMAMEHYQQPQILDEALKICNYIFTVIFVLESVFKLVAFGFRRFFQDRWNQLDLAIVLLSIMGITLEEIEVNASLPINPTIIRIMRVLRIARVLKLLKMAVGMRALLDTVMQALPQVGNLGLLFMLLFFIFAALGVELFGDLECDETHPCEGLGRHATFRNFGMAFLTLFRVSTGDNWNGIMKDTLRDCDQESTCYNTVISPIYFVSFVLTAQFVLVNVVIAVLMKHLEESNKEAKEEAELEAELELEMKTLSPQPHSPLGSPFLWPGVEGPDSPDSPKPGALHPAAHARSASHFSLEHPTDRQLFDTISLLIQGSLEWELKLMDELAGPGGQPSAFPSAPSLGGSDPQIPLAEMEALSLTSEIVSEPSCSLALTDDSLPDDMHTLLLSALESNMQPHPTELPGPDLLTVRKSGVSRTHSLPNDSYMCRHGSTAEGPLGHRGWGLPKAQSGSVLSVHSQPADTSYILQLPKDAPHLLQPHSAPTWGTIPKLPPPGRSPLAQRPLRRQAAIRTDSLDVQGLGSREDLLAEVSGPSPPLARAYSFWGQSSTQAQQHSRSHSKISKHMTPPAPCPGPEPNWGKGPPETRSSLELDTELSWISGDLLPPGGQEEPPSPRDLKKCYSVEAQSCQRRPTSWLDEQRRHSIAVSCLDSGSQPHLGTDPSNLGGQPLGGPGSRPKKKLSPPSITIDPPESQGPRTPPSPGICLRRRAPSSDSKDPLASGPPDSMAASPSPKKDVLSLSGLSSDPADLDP
Briefly: Screening of activity against T-type calcium channel with FDSS6000 (fluorescence, KCl-induced [Ca2+]i increase). It is filed as cell-based. The note with it: 10 μM; HEK293 cells expressing α1G and Kir2.1; NA: Not Active; read-out: Inhibitory effect (%) of T-type calcium channel, Inhibition (%). How it is done:
Meanwhile, the antagonistic activity of the novel compound of Formula (1) herein against T-type calcium channel was tested as described below. The synthesized compounds were tested for the activity against T-type calcium channel with FDSS6000. Compounds with good activity were selected and IC50 values were exactly obtained by using electrophysiological whole cell patch clamp method. HEK293 cells which stably express both α1G and Kir2.1 subunits were grown in Dulbecco's modified Eagle's medium supplemented with 10% (v/v) fetal bovine serum, penicillin (100 U/mL), streptomycin (100 μg/mL), geneticin (500 μg/mL), and +puromycin (I μg/mL) at 37° C. in a humid atmosphere of 5% CO2 and 95% air. Cells were seeded into 96-well black wall clear bottom plates at a density of 4×10^4 cells/well and were used the next day for high-throughput screening (HTS) FDSS6000 assay. For FDSS6000 assay, cells were incubated for 60 min at room temperature with 5 μM fluo3/AM and 0.001% Pluronic F-127 in a HEPES-buffered solution composed of (in mM): 115 NaCl, 5.4 KCl, 0.8 MgCl2, 1.8 CaCl2, 20 HEPES, 13.8 glucose (pH 7.4). During the fluorescence-based FDSS6000 assay, cells in HEPES-buffered solution containing 10 mM CaCl2 were pretreated with a certain concentration of test compounds and then treated with high concentration of KCl ([…]). α1G T-type Ca^2+ channels were activated by using high concentration of KCl (70 mM) and the increase in [Ca^2+]i by KCl-induced depolarization was detected. During the whole procedure, cells were washed using the BIO-TEK 96-well washer. All data were collected and analyzed using FDSS6000 and related software (Hamamatsu, Japan). The IC50 results of examining the inhibitory effects of the compounds herein selected with FDSS6000 on the calcium influx through the T-type calcium channel are provided in TABLEs 1 and 2.
As to `CN1CCN(CCCNC(=O)c2ccc3c(c2)C(=O)N(Cc2cccc(F)c2)C3=O)CC1` [Compound 67, 1-(3-{[2-(3-fluoro-benzyl)-1,3-dioxo-2,3-dihydro-1H-isoindol-5-carbonyl]-amino}-propyl)-4-methyl-1-piperazinium chloride], the inhibition at 10 µM stood at 2.2%.
Regarding `CN1CCN(CCCNC(=O)c2ccc3c(c2)C(=O)N(Cc2ccc(F)cc2)C3=O)CC1` [Compound 74, 1-(3-{[2-(4-fluoro-benzyl)-1,3-dioxo-2,3-dihydro-1H-isoindol-5-carbonyl]-amino}-propyl)-4-methyl-1-piperazinium chloride], the inhibition at 10 µM worked out at 5.6%.
As for `O=C(NCCN1CCCCC1)c1ccc2c(c1)C(=O)N(Cc1ccccc1Cl)C2=O` [Compound 75, 1-(2-{[2-(2-chloro-benzyl)-1,3-dioxo-2,3-dihydro-1H-isoindol-5-carbonyl]-amino}-ethyl)-piperidinium chloride], the inhibition at 10 µM stood at 33.6%.
Regarding `O=C(NCCN1CCCC1)c1ccc2c(c1)C(=O)N(Cc1ccccc1Cl)C2=O` [Compound 77, 1-(2-{[2-(2-chloro-benzyl)-1,3-dioxo-2,3-dihydro-1H-isoindol-5-carbonyl]-amino}-ethyl)-pyrrolidinium chloride], the inhibition at 10 µM was determined as 21.5%.
On the same count and under the same terms, under `O=C(NCCCN1CCCC1)c1ccc2c(c1)C(=O)N(Cc1ccccc1Cl)C2=O` [Compound 78, 1-(3-{[2-(2-chloro-benzyl)-1,3-dioxo-2,3-dihydro-1H-isoindol-5-carbonyl]-amino}-propyl)-pyrrolidinium chloride] stands 25.4%; under `O=C(NCCN1CCOCC1)c1ccc2c(c1)C(=O)N(Cc1ccccc1Cl)C2=O` [Compound 79, 4-(2-{[2-(2-chloro-benzyl)-1,3-dioxo-2,3-dihydro-1H-isoindol-5-carbonyl]-amino}-ethyl)-4-morpholinium chloride], 15.6%.
Same read-out and setting: under `O=C(NCCCN1CCOCC1)c1ccc2c(c1)C(=O)N(Cc1ccccc1Cl)C2=O` [Compound 80, 4-(3-{[2-(2-chloro-benzyl)-1,3-dioxo-2,3-dihydro-1H-isoindol-5-carbonyl]-amino}-propyl)-4-morpholinium chloride] stands 23.5%; under `O=C(NCCN1CCCCC1)c1ccc2c(c1)C(=O)N(Cc1cccc(Cl)c1)C2=O` [Compound 81, 1-(2-{[2-(3-chloro-benzyl)-1,3-dioxo-2,3-dihydro-1H-isoindol-5-carbonyl]-amino}-ethyl)-piperidinium chloride], 42.9%.
Same read-out and setting: in the case of `O=C(NCCN1CCCC1)c1ccc2c(c1)C(=O)N(Cc1cccc(Cl)c1)C2=O` [Compound 83, 1-(2-{[2-(3-chloro-benzyl)-1,3-dioxo-2,3-dihydro-1H-isoindol-5-carbonyl]-amino}-ethyl)-pyrrolidinium chloride] it was 28.9%.

The assay is the same for the next values; noted with them: 100 μM; HEK293 cells expressing α1G and Kir2.1; read-out: Inhibitory effect (%) of T-type calcium channel, Inhibition (%).
For the compound `CC1CCCCN1CCCNC(=O)c1ccc2c(c1)C(=O)N(Cc1ccccc1F)C2=O` (centres unmarked) [Compound 56, 1-(3-{[2-(2-fluoro-benzyl)-1,3-dioxo-2,3-dihydro-1H-isoindol-5-carbonyl]-amino}-propyl)-2-methyl-piperidinium chloride], the inhibition at 100 µM is 78.8%.
For the compound `O=C(NCCN1CCCC1)c1ccc2c(c1)C(=O)N(Cc1ccccc1F)C2=O` [Compound 57, 1-(2-{[2-(2-fluoro-benzyl)-1,3-dioxo-2,3-dihydro-1H isoindol-5-carbonyl]-amino}-ethyl)-pyrrolidinium chloride], the inhibition at 100 µM turned out to be 65.5%.
As for `O=C(NCCCN1CCCC1)c1ccc2c(c1)C(=O)N(Cc1ccccc1F)C2=O` [Compound 58, 1-(3-{[2-(2-fluoro-benzyl)-1,3-dioxo-2,3-dihydro-1H-isoindol-5-carbonyl]-amino}-propyl)-pyrrolidinium chloride], the inhibition at 100 µM was 70.6%.
For the compound `O=C(NCCN1CCOCC1)c1ccc2c(c1)C(=O)N(Cc1ccccc1F)C2=O` [Compound 59, 4-(2-{[2-(2-fluoro-benzyl)-1,3-dioxo-2,3-dihydro-1H-isoindol-5-carbonyl]-amino}-ethyl)-4-morpholinium chloride], the inhibition at 100 µM came out at 30.2%.
As for `O=C(NCCCN1CCOCC1)c1ccc2c(c1)C(=O)N(Cc1ccccc1F)C2=O` [Compound 60, 4-(3-{[2-(2-fluoro-benzyl)-1,3-dioxo-2,3-dihydro-1H-isoindol-5-carbonyl]-amino}-propyl)-4-morpholinium chloride], the inhibition at 100 µM came to 60.8%.
For `CC1CCCCN1CCCNC(=O)c1ccc2c(c1)C(=O)N(Cc1cccc(F)c1)C2=O` (centres unmarked) [Compound 62, 1-(3-{[2-(3-fluoro-benzyl)-1,3-dioxo-2,3-dihydro-1H-isoindol-5-carbonyl]-amino}-propyl)-2-methyl-piperidinium chloride], the inhibition at 100 µM stood at 83.5%.
`O=C(NCCN1CCCC1)c1ccc2c(c1)C(=O)N(Cc1cccc(F)c1)C2=O` [Compound 63, 1-(2-{[2-(3-fluoro-benzyl)-1,3-dioxo-2,3-dihydro-1H-isoindol-5-carbonyl]-amino}-ethyl)-pyrrolidinium chloride]: the inhibition at 100 µM was found to be 73.4%.
For the compound `O=C(NCCCN1CCCC1)c1ccc2c(c1)C(=O)N(Cc1cccc(F)c1)C2=O` [Compound 64, 1-(3-{[2-(3-fluoro-benzyl)-1,3-dioxo-2,3-dihydro-1H-isoindol-5-carbonyl]-amino}-propyl)-pyrrolidinium chloride], the inhibition at 100 µM amounted to 65.9%.
Same read-out and setting: in the case of `O=C(NCCN1CCOCC1)c1ccc2c(c1)C(=O)N(Cc1cccc(F)c1)C2=O` [Compound 65, 4-(2-{[2-(3-fluoro-benzyl)-1,3-dioxo-2,3-dihydro-1H-isoindol-5-carbonyl]-amino}-ethyl)-4-morpholinium chloride] it was 59.8%; in that of `O=C(NCCCN1CCOCC1)c1ccc2c(c1)C(=O)N(Cc1cccc(F)c1)C2=O` [Compound 66, 4-(3-{[2-(3-fluoro-benzyl)-1,3-dioxo-2,3-dihydro-1H-isoindol-5-carbonyl]-amino}-propyl)-4-morpholinium chloride], 59.8%; in that of `O=C(NCCN1CCCCC1)c1ccc2c(c1)C(=O)N(Cc1ccc(F)cc1)C2=O` [Compound 68, 1-(2-{[2-(4-fluoro-benzyl)-1,3-dioxo-2,3-dihydro-1H-isoindol-5-carbonyl]-amino}-ethyl)-piperidinium chloride], 78.2%.
Regarding `O=C(NCCN1CCCC1)c1ccc2c(c1)C(=O)N(Cc1ccc(F)cc1)C2=O` [Compound 70, 1-(2-{[2-(4-fluoro-benzyl)-1,3-dioxo-2,3-dihydro-1H-isoindol-5-carbonyl]-amino}-ethyl)-pyrrolidinium chloride], the inhibition at 100 µM was 67.5%.
Turning to `O=C(NCCN1CCOCC1)c1ccc2c(c1)C(=O)N(Cc1ccc(F)cc1)C2=O` [Compound 72, 4-(2-{[2-(4-fluoro-benzyl)-1,3-dioxo-2,3-dihydro-1H-isoindol-5-carbonyl]-amino}-ethyl)-4-morpholinium chloride], the inhibition at 100 µM was 46.4%.
The same measure, in the same setting: in the case of `O=C(NCCCN1CCOCC1)c1ccc2c(c1)C(=O)N(Cc1ccc(F)cc1)C2=O` [Compound 73, 4-(3-{[2-(4-fluoro-benzyl)-1,3-dioxo-2,3-dihydro-1H-isoindol-5-carbonyl]-amino}-propyl)-4-morpholinium chloride] it was 64.8%.
